Where “and” joins values, the source holds several entries; their conditions need not be identical. Identical values can stand only once. Inconclusive results and toxic doses are left out. Starred links: 1 amine or outer side, 2 acyl side, 3 side chain; linkers in the order of their positions; H or OH if unused. Positions of bridges follow the written chain, without caps; N, C: chain ends. Non-standard residues stand in square brackets, D forms with d. Residues, ends and D or L forms follow the SMILES beside them. Chains are numbered I, II in the order given. Actinocin(1to9) = Cc1c2oc3c(C)ccc(C(=O)[*:2])c3nc-2c(C(=O)[*:1])c(N)c1=O; NMeV = CN[CH](C(=O)O)C(C)C; Aze = O=C(O)[CH]1CCN1; Sar = CNCC(=O)O
Tested on: BDF1 mice, P815 leukemia ip, survival T/C
Assay: NCI In Vivo Anticancer Drug Screen. Data for tumor model P815 Mast Cell Leukemia (Ascitic) (intraperitoneal) in B6D2F1 (BDF1) mice
Settings: higher = longer survival
Description: The antitumor activity of compounds was measured in mice bearing transplantable tumors. Survival or tumor size were measured and the results are expressed as the measurement made in the treated group (T) divided by the measurement made in the vehicle treated control group (C). The tumor model used in this assay is P815 Mast Cell Leukemia (Ascitic) (intraperitoneal) in B6D2F1 (BDF1) mice

[1] = endpoint: survival time, mean or median, dose: 50.0 mg/kg/injection, schedule: Q01DX010 (ip), vehicle: saline
[2] = endpoint: survival time, mean or median, dose: 100.0 mg/kg/injection, schedule: Q01DX010 (ip), vehicle: saline
[3] = endpoint: survival time, mean or median, dose: 200.0 mg/kg/injection, schedule: Q01DX010 (ip), vehicle: saline

SMILES: CC[C@]1(O)C[C@H]2CN(CCc3c([nH]c4ccccc34)[C@@](C(=O)OC)(c3cc4c(cc3OC)N(C=O)[C@H]3[C@@](O)(C(=O)OC)[C@H](OC(C)=O)[C@]5(CC)C=CCN6CC[C@]43[C@@H]65)C2)C1
- T/C (endpoint: survival time, mean or median, dose: 0.09 mg/kg/injection, schedule: Q01DX015 (ip), vehicle: carboxymethylcellulose (CMC)): 185 % of control
- T/C (endpoint: survival time, mean or median, dose: 0.13 mg/kg/injection, schedule: Q01DX015 (ip), vehicle: carboxymethylcellulose (CMC)): 183 % of control
- T/C (endpoint: survival time, mean or median, dose: 0.2 mg/kg/injection, schedule: Q01DX015 (ip), vehicle: carboxymethylcellulose (CMC)): 213 % of control
- T/C (endpoint: survival time, mean or median, dose: 0.2 mg/kg/injection, schedule: Q01DX015 (ip), vehicle: saline): 107 % of control
- T/C (endpoint: survival time, mean or median, dose: 0.3 mg/kg/injection, schedule: Q01DX015 (ip), vehicle: carboxymethylcellulose (CMC)): 183 % of control
- T/C (endpoint: survival time, mean or median, dose: 0.3 mg/kg/injection, schedule: Q01DX015 (ip), vehicle: saline): 95 % of control
- T/C (endpoint: survival time, mean or median, dose: 0.45 mg/kg/injection, schedule: Q01DX015 (ip), vehicle: carboxymethylcellulose (CMC)): 102 % of control
- T/C (endpoint: survival time, mean or median, dose: 0.8 mg/kg/injection, schedule: Q01DX001 (ip), vehicle: saline): 170 % of control
- T/C (endpoint: survival time, mean or median, dose: 1.8 mg/kg/injection, schedule: Q01DX001 (ip), vehicle: saline): 153 % of control
- T/C (endpoint: survival time, mean or median, dose: 4.3 mg/kg/injection, schedule: Q01DX001 (ip), vehicle: saline): 113 % of control
- T/C (endpoint: survival time, mean or median, dose: 12.5 micrograms/kg/injection, schedule: Q01DX015 (ip), vehicle: carboxymethylcellulose (CMC)): 116 % of control
- T/C (endpoint: survival time, mean or median, dose: 25.0 micrograms/kg/injection, schedule: Q01DX015 (ip), vehicle: carboxymethylcellulose (CMC)): 120 % of control
- T/C (endpoint: survival time, mean or median, dose: 100.0 micrograms/kg/injection, schedule: Q01DX015 (ip), vehicle: carboxymethylcellulose (CMC)): 170 % of control
- T/C (endpoint: survival time, mean or median, dose: 150.0 micrograms/kg/injection, schedule: Q01DX015 (ip), vehicle: saline): 158 % of control

SMILES: Nc1nc(=S)c2[nH]cnc2[nH]1
- T/C (endpoint: survival time, mean or median, dose: 2.5 mg/kg/injection, schedule: Q01DX010 (ip), vehicle: saline): 95 % of control
- T/C (endpoint: survival time, mean or median, dose: 5.0 mg/kg/injection, schedule: Q01DX010 (ip), vehicle: saline): 122 % of control
- T/C (endpoint: survival time, mean or median, dose: 10.0 mg/kg/injection, schedule: Q01DX010 (ip), vehicle: saline): 90 % of control and 118 % of control

SMILES: CCCCNc1ncnc2c1cnn2C
- T/C (endpoint: survival time, mean or median, dose: 31.25 mg/kg/injection, schedule: Q01DX010 (ip), vehicle: saline): 95 % of control and 100 % of control
- T/C (endpoint: survival time, mean or median, dose: 62.5 mg/kg/injection, schedule: Q01DX010 (ip), vehicle: saline): 108 % of control

SMILES: Cc1c2oc3c(C)ccc(C(=O)NC4C(=O)NC(C(C)C)C(=O)N5CCCC5C(=O)N(C)CC(=O)N(C)C(C(C)C)C(=O)OC4C)c3nc-2c(C(=O)NC2C(=O)NC(C(C)C)C(=O)N3CCC3C(=O)N(C)CC(=O)N(C)C(C(C)C)C(=O)OC2C)c(N)c1=O (stereo unspecified) (I: TV[Aze][Sar][NMeV] / II: TVP[Sar][NMeV]; ester I:1-I:C, II:1-II:C; linker I:N-II:N via Actinocin(1to9); configuration not given here)
- T/C (endpoint: median survival time, dose: 450.0 micrograms/kg/injection, schedule: Q01DX001 (ip), vehicle: saline + alcohol): 116 % of control
- T/C (endpoint: median survival time, dose: 750.0 micrograms/kg/injection, schedule: Q01DX001 (ip), vehicle: saline + alcohol): 118 % of control
- T/C (endpoint: median survival time, dose: 750.0 micrograms/kg/injection, schedule: Q04DX003 (ip), vehicle: saline + alcohol): 96 % of control
- T/C (endpoint: median survival time, dose: 1250.0 micrograms/kg/injection, schedule: Q04DX003 (ip), vehicle: saline + alcohol): 93 % of control
- T/C (endpoint: median survival time, dose: 2080.0 micrograms/kg/injection, schedule: Q01DX001 (ip), vehicle: saline + alcohol): 86 % of control

SMILES: O=C(Nc1cccc(C(=O)Nc2ccc(C3=NCCN3)cc2)c1)c1ccc(C2=NCCN2)cc1
- T/C (endpoint: survival time, mean or median, dose: 54.0 mg/kg/injection, schedule: Q01DX010 (ip), vehicle: saline): 112 % of control

SMILES: O=C(Nc1ccc(C2=NCCN2)cc1)c1ccc(C(=O)Nc2ccc(C3=NCCN3)cc2)c(NC(=O)c2ccc(C(=O)Nc3cc(C(=O)Nc4ccc(C5=NCCN5)cc4)ccc3C(=O)Nc3ccc(C4=NCCN4)cc3)cc2)c1
- T/C (endpoint: survival time, mean or median, dose: 25.0 mg/kg/injection, schedule: Q01DX010 (ip), vehicle: saline): 95 % of control
- T/C [1]: 108 % of control
- T/C [2]: 95 % of control
- T/C [3]: 104 % of control

SMILES: Nc1nc(SCc2ccccc2)c2[nH]cnc2n1
- T/C (endpoint: survival time, mean or median, dose: 8.0 mg/kg/injection, schedule: Q01DX010 (ip), vehicle: saline): 100 % of control and 105 % of control
- T/C (endpoint: survival time, mean or median, dose: 16.0 mg/kg/injection, schedule: Q01DX010 (ip), vehicle: saline): 100 % of control and 111 % of control
- T/C (endpoint: survival time, mean or median, dose: 64.0 mg/kg/injection, schedule: Q01DX010 (ip), vehicle: saline): 100 % of control and 122 % of control

SMILES: Cc1cc2nc3c(=O)[nH]c(=O)nc-3n(CC(O)C(O)C(O)C(O)CO)c2cc1C (stereo unspecified)
- T/C [1]: 100 % of control
- T/C [2]: 100 % of control
- T/C [3]: 88 % of control and 100 % of control
- T/C (endpoint: survival time, mean or median, dose: 400.0 mg/kg/injection, schedule: Q01DX010 (ip), vehicle: saline): 88 % of control

Reference: PubChem BioAssay AID318 (DTP/NCI, 2004)
